From patent publication US20090064375A1, “Paraquat Resistance Gene and a Vascular Tissue- and Trichome-specific Promoter” (priority 2003, published 2009) come the findings set out here.

The structures appear in SMILES notation.

The test system of the test is non-transformant (wild-type Arabidopsis thaliana ecotype Col-0). Nature of the test: Evaluation of paraquat resistance: growth of germinated individuals in paraquat-containing ½ MS medium, non-transformant. In kind it is in vivo. The settings on record: 3 μM of paraquat in ½ MS agar medium, cultured for eight days at 22° C., FIG. 2C. Here is the method: Seeds derived from the produced AtMVR gene transformant and non-transformant (wild-type Arabidopsis thaliana ecotype Col-0) were sterilely inoculated in ½ MS agar (1%) medium (2.3 g/l of Murashige and Skoog Plant Salt Mixture (Wako Pure Chemical Industries Ltd.), 1.5 mg/l of thiamine hydrochloride, 2.5 mg/l of nicotinic acid, 0.25 mg/l of pyridoxine hydrochloride, 1.5% of sucrose) containing 3 μM of paraquat (methyl viologen (Sigma Chemical Co.)), and cultured for eight days at 22° C. under irradiation of light of 60 μmol/m^2/s (cycle of 16 hrs photoperiod/8 hrs dark period). After culture, the growth of germinated individuals was evaluated. The results are shown in FIG. 2, wherein FIG. 2B is a photograph showing growth of an AtMVR gene transformant and a non-transformant in a ½ MS culture medium without paraquat, and FIG. 2C is a photograph showing growth of an AtMVR gene transformant and a non-transformant in a ½ MS culture medium with paraquat. FIG. 2A is a schematic diagram showing the location of the AtMVR gene transformant and the non-transformant in FIGS. 2B and 2C.

For `C[n+]1ccc(-c2cc[n+](C)cc2)cc1` [paraquat], the “growth of germinated individuals in a medium containing paraquat” value is “developed chlorosis and died”.
